One data set can be described thus: physchem. The class given is physicochemical. The conditions noted are these: pH 7.4.
Another data set has as its target human albumin (Homo sapiens, UniProt P02768). Put plainly: in vitro. The conditions noted are these: plasma, cPPB, estimated from retention on human albumin column. It counts as in vitro ADME.
Data set [1] has as its system S. mansoni. The data set can be described thus: S. mansoni in vivo study, worm burden reduction in infected NMRI mice. Set-up: species or system Schistosoma mansoni in NMRI mice. The settings on record: for inhibition in vivo at 100 mg/kg: Schistosoma mansoni, in Mus musculus, po, 504 h, read-out: S. mansoni WBR.
Data set [2] in a line: Mouse exposure study after oral administration. It counts as in vivo, male Swiss outbred mice. The settings on record: male, Swiss outbred, mouse, plasma, po, 100 mg/kg.
The format of data set [3] is in vitro ADME. The settings on record: liver microsomes. For orientation: Microsomes from liver hold many membrane-bound enzymes, among them those of drug oxidation.
The nature of data set [4]: in vitro. The settings on record: human, microsomes.
The nature of data set [5]: in vitro. The settings on record: mouse, microsomes.
In data set [6] the test system is S. mansoni. The settings on record: 1 × 100 mg/kg po, cited from earlier work.
Data set [7] deals with schistosomula or adult S. mansoni. The conditions noted are these: concentrations up to 170 μM; cited from earlier work.
The subject of a further data set is AR. The settings on record: cited from earlier work.
In data set [8] the test system is androgen-dependent cell line. The settings on record: cited from earlier work.
For data set [9] the following is noted: single 1250 mg/kg dose, mice; cited from earlier work.
For data set [10] the following is noted: cited from earlier work.
The target in data set [11] is T1, wild-type androgen receptor (AR) in LAPC4 cell line (Homo sapiens, UniProt P10275).
T1 sequence (P10275 1-920): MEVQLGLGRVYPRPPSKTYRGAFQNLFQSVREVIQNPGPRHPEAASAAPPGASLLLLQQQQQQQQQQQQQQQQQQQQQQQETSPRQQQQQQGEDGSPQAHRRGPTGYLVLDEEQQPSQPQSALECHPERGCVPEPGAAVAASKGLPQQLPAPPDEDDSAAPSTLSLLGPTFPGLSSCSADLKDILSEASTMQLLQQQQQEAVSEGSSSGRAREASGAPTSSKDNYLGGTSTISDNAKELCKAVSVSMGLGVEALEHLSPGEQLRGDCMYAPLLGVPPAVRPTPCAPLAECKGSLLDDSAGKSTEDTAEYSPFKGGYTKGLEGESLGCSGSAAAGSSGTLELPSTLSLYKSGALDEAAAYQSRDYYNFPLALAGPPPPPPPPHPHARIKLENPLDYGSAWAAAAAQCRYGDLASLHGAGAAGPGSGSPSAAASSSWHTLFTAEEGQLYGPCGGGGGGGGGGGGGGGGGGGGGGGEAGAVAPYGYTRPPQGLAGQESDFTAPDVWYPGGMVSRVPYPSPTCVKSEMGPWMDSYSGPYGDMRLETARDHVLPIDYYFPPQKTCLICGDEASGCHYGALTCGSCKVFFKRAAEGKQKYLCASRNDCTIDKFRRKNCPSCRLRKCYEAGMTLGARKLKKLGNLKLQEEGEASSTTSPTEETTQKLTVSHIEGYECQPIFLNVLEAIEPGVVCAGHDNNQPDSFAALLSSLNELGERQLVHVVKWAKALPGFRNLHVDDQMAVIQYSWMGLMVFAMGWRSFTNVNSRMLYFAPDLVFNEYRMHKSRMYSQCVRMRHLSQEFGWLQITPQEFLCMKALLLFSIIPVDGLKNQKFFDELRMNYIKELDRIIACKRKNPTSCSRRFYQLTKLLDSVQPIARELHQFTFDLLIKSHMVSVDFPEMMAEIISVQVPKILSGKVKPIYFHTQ
It counts as cell-based.

Data set [12] concerns S. mansoni. The conditions noted are these: cited from earlier work.
[13] abbreviates: 0.01 M HCl (approximately pH 2.0), 1% DMSO, nephelometry.
Where [14] appears, read: pH 6.5 phosphate buffer, 1% DMSO, nephelometry.

Data on 7 compounds can be found in article PMC5150661 (Journal of Medicinal Chemistry, 2016).

Where two headings read alike, the source gives them in different places. Marks after values point to notes of the source that are not given here.

Chain of human albumin (P02768 25-609): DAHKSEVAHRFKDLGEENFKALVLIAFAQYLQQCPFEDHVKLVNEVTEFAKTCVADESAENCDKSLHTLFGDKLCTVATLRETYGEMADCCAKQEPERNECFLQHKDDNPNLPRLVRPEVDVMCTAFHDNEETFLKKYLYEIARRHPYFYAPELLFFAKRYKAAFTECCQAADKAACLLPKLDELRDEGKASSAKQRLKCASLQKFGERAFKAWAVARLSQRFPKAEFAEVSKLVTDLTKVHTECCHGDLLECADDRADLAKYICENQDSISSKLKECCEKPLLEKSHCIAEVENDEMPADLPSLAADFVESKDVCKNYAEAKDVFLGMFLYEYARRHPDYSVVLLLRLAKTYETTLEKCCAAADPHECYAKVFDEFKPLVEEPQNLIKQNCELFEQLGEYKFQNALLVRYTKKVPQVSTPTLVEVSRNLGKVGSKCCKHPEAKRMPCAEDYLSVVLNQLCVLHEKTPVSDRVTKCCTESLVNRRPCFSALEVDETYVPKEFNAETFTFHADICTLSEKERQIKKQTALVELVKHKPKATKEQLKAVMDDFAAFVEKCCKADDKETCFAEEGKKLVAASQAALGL

A word on the chromatographic logD: it is lipophilicity estimated from chromatographic retention. One may read the fraction unbound as free concentration divided by total concentration. By AUC(0-t) is commonly meant exposure summed from dosing to a finite time, without extrapolation to infinity. Low values mean less exposure, high ones more exposure. Broadly, the Cmax is the highest concentration seen after dosing. The Tmax is the time from dosing to the highest level. The term microsomal CLint denotes the capacity of the preparation to metabolise the compound, expressed as a volume cleared per time. `CC1NC(=O)N(c2ccc(F)c(C(F)(F)F)c2)C1=O` (stereo not drawn) [Compd 23, 3-[4-Fluoro-3-(trifluoromethyl)phenyl]-5-methylimidazolidine-2,4-dione] gave a chromatographic logD in the data set “physchem” of 2.4. The fraction unbound on human albumin was 0.614. Besides, in the data set on S. mansoni [1], the inhibition in vivo at 100 mg/kg was determined as 66%. Moreover, in [2], the AUC(0-t) is 163 µM·h, the Cmax was determined as 26.6 µM and the Tmax is 1 h. The “metabolic stability (in words)” value in data set [3] was “high metabolic stabilities”. The Sol2.0 under setting [13] is recorded as >100/>100 μg/mL. Besides, under setting [14], the Sol6.5 is reported as >100/>100 μg/mL. In the data set “in vitro [4]”, the microsomal CLint came out at 17 µL/min/mg. The same compound returned a microsomal CLint in the data set “in vitro [5]” of 34 µL/min/mg.

As usually defined, the pKa is the negative logarithm of the acid dissociation constant. Consider `CC1(C)NC(=O)N(c2ccc(F)c(C(F)(F)F)c2)C1=O` [Compd 1], for which the “metabolic stability (in words)” value in data set [3] is recorded as “high metabolic stabilities”. Further, the Sol2.0 under setting [13] was >100/>100 μg/mL. Also, the Sol6.5 under setting [14] is given as >100/>100 μg/mL. For the same compound, the “S. mansoni WBR” value in the data set on S. mansoni [6] (ref Keiser et al. 19, 100 mg/kg) is recorded as 95 ^h %. The “effect on adult S. mansoni in vitro” value in data set [7] was “almost no effect”. In addition, the “interaction with the AR in a ligand competition assay” value with AR is “no measurable interaction”. Also, in data set [8], the DHT-induced cell proliferation entry is on record as “did block”. In addition, the “toxicity after a single dose” value in data set [9] is “no apparent toxicity”. The pKa in data set [10] was 12.1.

The term IC50 denotes the concentration that inhibits the measured activity by half. A higher IC50 goes with a need for much substance. As for `O=C1N[C@H](c2ccccc2)C(=O)N1c1ccc(F)c(C(F)(F)F)c1` [Compd 24, (R)-3-[4-Fluoro-3-(trifluoromethyl)phenyl]-5-phenylimidazolidine-2,4-dione], the chromatographic logD in “physchem” turned out to be 3.5. For the same compound, the IC50 in data set [11] is 5.3 µM. Moreover, the inhibition in vivo at 100 mg/kg in the data set with S. mansoni [1] was 41%. Moreover, the “metabolic stability (in words)” value in data set [3] was “decreased the metabolic stabilities”. In addition, the Sol2.0 under setting [13] was 6.3–12.5/6.3–12.5 μg/mL. In addition, the Sol6.5 under setting [14] is 6.3–12.5/6.3–12.5 μg/mL. Also, the microsomal CLint came out at 22 µL/min/mg in the data set “in vitro [4]” and 181 µL/min/mg in “in vitro [5]”.

Regarding `CC1(C)NC(=O)N(c2ccc([N+](=O)[O-])c(C(F)(F)F)c2)C1=O` [N, nilutamide], the “antischistosomal activity in S. mansoni-infected mice” value with S. mansoni [12] is “weak, but measurable”.

With `CC1(C)C(=O)N(c2ccc(F)c(C(F)(F)F)c2)C(=O)N1CC(N)=O` [Compd 4, 2-[3-[4-Fluoro-3-(trifluoromethyl)phenyl]-5,5-dimethyl-2,4-dioxoimidazolidin-1-yl]acetamide], in data set [11] (DHT-induced luciferase reporter, 24 h), the “LAPC4 IC50” value is recorded as “agonist”. Further, in [11] (LAPC4 reporter), the “AR functional activity (in words)” value is “weak AR agonist”. The Sol2.0 under setting [13] is 50–100/50–100 μg/mL. Besides, the Sol6.5 under setting [14] is 50–100/50–100 μg/mL.

As for `O=C(C1CCCCC1)N1CC(=O)N2CCc3ccccc3C2C1` (stereo not drawn) [PZ, Praziquantel], where the note is “pH 2”, the Sol2.0 is >100/>100 μg/mL. Further, the Sol6.5 (pH 6.5) is reported as >100/>100 μg/mL. The “S. mansoni WBR” value in the data set on S. mansoni [6] (ref Keiser et al. 21) is 18 ^i %. In the data set on S. mansoni [12] (mouse model), the “ED50 against adult S. mansoni” value is given as 172 to 202 mg/kg and the “activity against juvenile stages of the parasite” value is given as “no significant activity”.

With `CC1(C)NC(=O)N(c2ccnc(C(F)(F)F)c2)C1=O` [Compd 16, 5,5-Dimethyl-3-[2-(trifluoromethyl)pyridin-4-yl]imidazolidine-2,4-dione], the “cure of infected mice” value with S. mansoni [1] (100 mg/kg) was “cure of all of the infected mice”.
